From patent publication US20070275985A1, “Triazolopyrimidines” (Bayer Cropscience Aktiengesellschaft, priority 2003, published 2007) come the findings set out here.

Data set [1] can be described thus: logP determination by HPLC (EEC-Directive 79/831 Annex V. A8, gradient method). The data set is classed as physicochemical. To be noted: for chromatographic logP: value printed in preparation example text, read-out: HPLC: log P; for logP: gradient method, acetonitrile/0.1% aqueous phosphoric acid.
The subject of data set [2] is Erysiphe graminis f sp. tritici. In words: Erysiphe test (wheat)/protective. It counts as in vivo. To be noted: protective, 500 g/ha, assessment 7 days after inoculation. From the text:
[table] One part by weight of active substance is mixed with the specified quantities of solvent and emulsifier and the concentrate diluted with water to the desired concentration to prepare a suitable active substance preparation. To test the protective efficiency, young plants are sprayed with the active substance preparation in the specified amount. After drying the spray coating, the plants are dusted with spores of Erysiphe graminis f sp. tritici. The plants are then placed in a glasshouse at a temperature of about 20° C. and a relative humidity of about 80% to promote the development of mildew pustules. The assessment is made 7 days after the inoculation. In this situation 0% means an efficiency corresponding to that of the control whereas an efficiency of 100% means that no attack is observed.

Read-outs that look alike come from different tables or passages of the source.

With `C[C@H](Nc1c(-c2ncccc2C(F)(F)F)c(Cl)nc2ncnn12)C(F)(F)F` [Example 1, N-{5-chloro-6-[3-(trifluoromethyl)-2-pyridinyl][1,2,4]triazolo[1,5-a]pyrimidin-7-yl}-N-[(1 S)-2,2,2-trifluor-1-methylethyl]amine], in data set [1], the chromatographic logP was 2.22.
`C[C@H](Nc1c(-c2ncncc2Cl)c(Cl)nc2ncnn12)C(F)(F)F` [Example 2, N-[5-chloro-6-(5-chloro-4-pyrimidinyl)[1,2,4]triazolo[1,5-a]pyrimidin-7-yl]-N-[(1S)-2,2,2-trifluoro-1-methylethyl]amine]: in data set [2], the efficiency result is “higher than 90%”. The chromatographic logP in data set [1] (HPLC (gradient method, EEC-Directive 79/831 Annex V. A8)) amounted to 1.98.
A word on the logP: it is a log measure of how a compound divides between an organic and an aqueous phase. A higher logP goes with higher lipophilicity. For `CC(C)CNc1c(-c2ncc(C(F)(F)F)cc2F)c(Cl)nc2ncnn12` [Example 3], the logP in data set [1] stood at 2.85.
The same measure, in the same setting: next, `C=C(C)CN(CC)c1c(-c2ncc(C(F)(F)F)cc2F)c(Cl)nc2ncnn12` [Example 4]: 3.51; `CC(Nc1c(-c2ncc(C(F)(F)F)cc2F)c(Cl)nc2ncnn12)C(F)(F)F` (stereo not shown) [Example 6]: 2.91; `CC(C)C(C)Nc1c(-c2ncc(C(F)(F)F)cc2F)c(Cl)nc2ncnn12` (stereo not shown) [Example 7]: 3.13.
For the compound `C[C@@H](Nc1c(-c2ncncc2Cl)c(Cl)nc2ncnn12)C(F)(F)F` [Example 8], the logP in data set [1] turned out to be 1.98.
In data set [1], `CC(C)C(C)Nc1c(-c2ncccc2C(F)(F)F)c(Cl)nc2ncnn12` (stereo not shown) [Example 11] yielded a lipophilicity (logP) of 2.53.
The same measure, in the same setting: next, `CC(C)C(C)Nc1c(-c2ncncc2Cl)c(Cl)nc2ncnn12` (stereo not shown) [Example 13]: 2.16.
